ChEMBL document CHEMBL3991601, “The target landscape of clinical kinase drugs” (Science, 2017)
Calls of active or inactive are those of the source. For most assays here, no stated cut-off is given here; in the data, actives have a measured Kd and inactives only a lower limit.

How the values were obtained:
[1] = biological target: Cyclin-dependent kinase 6 (Homo sapiens, UniProt Q00534)
[2] = biological target: T1, Tyrosine--tRNA ligase, cytoplasmic (Homo sapiens, UniProt P54577)
T1 sequence (P54577 whole entry): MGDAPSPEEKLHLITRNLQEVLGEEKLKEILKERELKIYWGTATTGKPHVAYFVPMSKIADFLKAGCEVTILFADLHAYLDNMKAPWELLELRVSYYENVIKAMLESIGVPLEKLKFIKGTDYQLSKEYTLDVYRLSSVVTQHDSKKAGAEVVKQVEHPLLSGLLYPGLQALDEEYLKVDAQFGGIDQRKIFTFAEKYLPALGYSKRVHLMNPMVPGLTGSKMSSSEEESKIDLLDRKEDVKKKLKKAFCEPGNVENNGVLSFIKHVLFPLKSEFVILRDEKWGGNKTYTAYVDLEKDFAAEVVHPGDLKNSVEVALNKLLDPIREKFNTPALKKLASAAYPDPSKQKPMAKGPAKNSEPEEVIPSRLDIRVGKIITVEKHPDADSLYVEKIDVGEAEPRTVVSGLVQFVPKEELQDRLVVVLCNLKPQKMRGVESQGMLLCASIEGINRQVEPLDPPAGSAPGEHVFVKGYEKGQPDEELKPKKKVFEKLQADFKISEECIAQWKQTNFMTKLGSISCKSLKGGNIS

[3] = biological target: Casein kinase I isoform gamma-1 (Homo sapiens, UniProt Q9HCP0)
Casein kinase I isoform gamma-1, sequence (Q9HCP0 whole entry, canonical isoform): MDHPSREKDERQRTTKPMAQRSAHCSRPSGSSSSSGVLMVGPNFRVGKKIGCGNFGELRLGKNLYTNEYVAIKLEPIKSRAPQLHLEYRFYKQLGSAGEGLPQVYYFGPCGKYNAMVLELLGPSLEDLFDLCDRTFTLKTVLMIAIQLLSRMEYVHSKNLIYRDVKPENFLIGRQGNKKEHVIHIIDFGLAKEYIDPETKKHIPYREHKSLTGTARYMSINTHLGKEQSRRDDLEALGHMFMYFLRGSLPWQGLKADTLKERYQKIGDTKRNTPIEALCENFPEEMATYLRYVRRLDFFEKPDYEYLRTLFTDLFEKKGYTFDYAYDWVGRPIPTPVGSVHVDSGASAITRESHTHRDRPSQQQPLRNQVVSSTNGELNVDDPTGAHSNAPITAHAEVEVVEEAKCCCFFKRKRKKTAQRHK

[4] = biological target: Serine/threonine-protein kinase N2 (Homo sapiens, UniProt Q16513)
Serine/threonine-protein kinase N2, sequence (Q16513 whole entry): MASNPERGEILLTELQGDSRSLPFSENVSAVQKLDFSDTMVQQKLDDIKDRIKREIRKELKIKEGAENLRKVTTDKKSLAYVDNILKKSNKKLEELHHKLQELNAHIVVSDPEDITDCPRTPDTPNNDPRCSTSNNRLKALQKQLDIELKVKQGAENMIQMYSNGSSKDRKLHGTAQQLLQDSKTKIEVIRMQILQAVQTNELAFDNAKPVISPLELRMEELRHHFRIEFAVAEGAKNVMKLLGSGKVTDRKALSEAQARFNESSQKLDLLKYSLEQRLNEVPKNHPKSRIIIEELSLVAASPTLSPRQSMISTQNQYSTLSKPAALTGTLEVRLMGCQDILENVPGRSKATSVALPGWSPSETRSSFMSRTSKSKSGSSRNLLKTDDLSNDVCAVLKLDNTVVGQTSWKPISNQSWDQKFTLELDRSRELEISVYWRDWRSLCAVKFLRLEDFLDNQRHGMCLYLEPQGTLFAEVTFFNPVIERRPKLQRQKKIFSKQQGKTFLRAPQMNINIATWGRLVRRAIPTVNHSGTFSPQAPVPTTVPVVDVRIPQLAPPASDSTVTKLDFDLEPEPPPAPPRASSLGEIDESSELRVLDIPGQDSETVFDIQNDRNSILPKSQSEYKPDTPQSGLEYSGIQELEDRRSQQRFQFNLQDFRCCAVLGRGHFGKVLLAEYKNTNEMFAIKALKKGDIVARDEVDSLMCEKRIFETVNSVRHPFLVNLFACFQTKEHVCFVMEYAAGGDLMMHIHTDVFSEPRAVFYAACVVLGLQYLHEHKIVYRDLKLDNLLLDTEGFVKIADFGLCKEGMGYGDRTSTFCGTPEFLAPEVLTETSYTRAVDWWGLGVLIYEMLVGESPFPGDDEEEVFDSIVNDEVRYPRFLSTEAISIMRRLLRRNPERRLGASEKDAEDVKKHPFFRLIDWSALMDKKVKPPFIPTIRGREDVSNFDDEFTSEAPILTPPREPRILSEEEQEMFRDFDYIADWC

[5] = biological target: T2, Serine/threonine-protein kinase PLK4 (Homo sapiens, UniProt O00444)
T2 sequence (O00444 whole entry): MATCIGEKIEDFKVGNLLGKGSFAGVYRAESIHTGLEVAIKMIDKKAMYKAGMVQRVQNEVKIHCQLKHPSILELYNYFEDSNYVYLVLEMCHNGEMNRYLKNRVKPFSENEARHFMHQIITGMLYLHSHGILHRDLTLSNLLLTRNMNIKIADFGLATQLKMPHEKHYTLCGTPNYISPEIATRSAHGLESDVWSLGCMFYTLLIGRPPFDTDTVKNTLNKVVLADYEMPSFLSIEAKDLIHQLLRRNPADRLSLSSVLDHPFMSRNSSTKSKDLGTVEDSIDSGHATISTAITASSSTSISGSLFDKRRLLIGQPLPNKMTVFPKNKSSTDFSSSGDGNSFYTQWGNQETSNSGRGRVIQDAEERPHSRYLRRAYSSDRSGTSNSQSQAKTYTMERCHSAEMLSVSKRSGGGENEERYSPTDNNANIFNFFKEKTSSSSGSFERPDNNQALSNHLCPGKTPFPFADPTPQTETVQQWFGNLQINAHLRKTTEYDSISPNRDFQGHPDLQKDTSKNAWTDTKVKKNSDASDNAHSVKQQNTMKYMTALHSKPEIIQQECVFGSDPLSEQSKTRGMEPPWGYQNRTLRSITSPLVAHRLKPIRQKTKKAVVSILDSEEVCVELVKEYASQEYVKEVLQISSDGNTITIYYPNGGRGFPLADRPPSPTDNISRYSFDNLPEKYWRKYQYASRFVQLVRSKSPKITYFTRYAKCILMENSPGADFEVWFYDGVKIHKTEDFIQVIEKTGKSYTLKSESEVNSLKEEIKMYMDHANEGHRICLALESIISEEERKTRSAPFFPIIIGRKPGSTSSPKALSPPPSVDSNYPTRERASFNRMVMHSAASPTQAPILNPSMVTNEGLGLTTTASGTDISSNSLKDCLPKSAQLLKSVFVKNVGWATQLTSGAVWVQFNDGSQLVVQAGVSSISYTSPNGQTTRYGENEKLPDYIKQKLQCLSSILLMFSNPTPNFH

[6] = biological target: T3, Mitogen-activated protein kinase kinase kinase 2 (Homo sapiens, UniProt Q9Y2U5)
T3 sequence (Q9Y2U5 whole entry): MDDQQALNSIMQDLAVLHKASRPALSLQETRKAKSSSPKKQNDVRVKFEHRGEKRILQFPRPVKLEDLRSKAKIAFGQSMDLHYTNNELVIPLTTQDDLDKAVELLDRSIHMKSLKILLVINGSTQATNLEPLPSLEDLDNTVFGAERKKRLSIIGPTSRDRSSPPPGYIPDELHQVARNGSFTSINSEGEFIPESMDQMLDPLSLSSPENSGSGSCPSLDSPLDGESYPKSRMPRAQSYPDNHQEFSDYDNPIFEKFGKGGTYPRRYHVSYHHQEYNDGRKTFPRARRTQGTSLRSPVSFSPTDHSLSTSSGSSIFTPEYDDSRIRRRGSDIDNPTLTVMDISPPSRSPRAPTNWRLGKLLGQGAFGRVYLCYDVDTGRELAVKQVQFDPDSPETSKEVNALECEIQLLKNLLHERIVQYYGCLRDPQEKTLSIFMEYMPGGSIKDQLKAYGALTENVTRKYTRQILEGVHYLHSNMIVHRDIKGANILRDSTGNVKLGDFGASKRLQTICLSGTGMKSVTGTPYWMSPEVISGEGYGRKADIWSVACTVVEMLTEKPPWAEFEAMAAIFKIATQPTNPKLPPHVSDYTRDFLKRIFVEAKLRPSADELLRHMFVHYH

[7] = biological target: T4, ADP/ATP translocase 3 (Homo sapiens, UniProt P12236)
T4 sequence (P12236 whole entry): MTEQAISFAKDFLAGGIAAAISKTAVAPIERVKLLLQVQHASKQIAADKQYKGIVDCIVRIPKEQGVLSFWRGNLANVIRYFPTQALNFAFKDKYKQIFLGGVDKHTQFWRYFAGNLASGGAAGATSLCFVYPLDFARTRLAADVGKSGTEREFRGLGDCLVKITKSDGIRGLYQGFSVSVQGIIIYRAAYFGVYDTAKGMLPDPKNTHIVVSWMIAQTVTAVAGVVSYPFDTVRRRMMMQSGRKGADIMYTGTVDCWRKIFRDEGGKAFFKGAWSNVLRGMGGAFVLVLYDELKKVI

Cyclin-dependent kinase 6, sequence (Q00534 whole entry): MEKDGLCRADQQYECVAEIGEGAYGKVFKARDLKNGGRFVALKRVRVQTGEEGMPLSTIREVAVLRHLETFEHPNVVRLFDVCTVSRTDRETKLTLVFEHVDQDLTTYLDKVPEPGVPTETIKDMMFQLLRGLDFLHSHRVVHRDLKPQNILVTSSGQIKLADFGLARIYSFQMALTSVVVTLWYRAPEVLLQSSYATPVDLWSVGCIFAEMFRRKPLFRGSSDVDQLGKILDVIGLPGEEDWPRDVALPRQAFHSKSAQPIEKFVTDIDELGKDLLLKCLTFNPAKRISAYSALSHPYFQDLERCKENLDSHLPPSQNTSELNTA

| Compound | Kd [1] | Kd [2] | Kd [3] | Kd [4] | Kd [5] | Kd [6] | Kd [7] |
| --- | --- | --- | --- | --- | --- | --- | --- |
| FC(F)(F)c1ccc(/C=C/c2nc(COc3ccc(CCCCn4ccnn4)cc3)co2)cc1 [MUBRITINIB] | > 30 µM (inactive) | > 30 µM (inactive) | > 30 µM (inactive) | > 30 µM (inactive) | > 30 µM (inactive) | > 30 µM (inactive) | > 30 µM (inactive) |
| COc1ncc(-c2ccc3nccc(-c4ccnnc4)c3c2)cc1NS(=O)(=O)c1ccc(F)cc1F [OMIPALISIB] | > 30 µM (inactive) | > 30 µM (inactive) | > 30 µM (inactive) | > 30 µM (inactive) | > 30 µM (inactive) | > 30 µM (inactive) | > 30 µM (inactive) |
| CCOc1cc2ncc(C#N)c(Nc3ccc(F)c(Cl)c3)c2cc1NC(=O)/C=C/CN(C)C [PELITINIB] | > 30 µM (inactive) | > 30 µM (inactive) | > 30 µM (inactive) | > 30 µM (inactive) | > 30 µM (inactive) | > 30 µM (inactive) | > 30 µM (inactive) |
| CCCCCCCCCCCCCCCCCCOP(=O)([O-])OC1CC[N+](C)(C)CC1 [PERIFOSINE] | > 30 µM (inactive) | > 30 µM (inactive) | > 30 µM (inactive) | > 30 µM (inactive) | > 30 µM (inactive) | > 30 µM (inactive) | > 30 µM (inactive) |
| Cc1cnc(NC(=O)Nc2cc(Br)c(C)cc2OC[C@@H]2CNCCO2)cn1 [RABUSERTIB] | > 30 µM (inactive) | > 30 µM (inactive) | > 30 µM (inactive) | > 30 µM (inactive) | > 30 µM (inactive) | > 30 µM (inactive) | > 30 µM (inactive) |
| CNC(=O)c1cc(Oc2ccc(NC(=O)Nc3cc(C(C)(C)C)nn3-c3ccc4ncccc4c3)c(F)c2)ccn1 [REBASTINIB] | > 30 µM (inactive) | > 30 µM (inactive) | > 30 µM (inactive) | > 30 µM (inactive) | 4.09 µM (active) | > 30 µM (inactive) | > 30 µM (inactive) |
| CO[C@H]1C[C@@H]2CC[C@@H](C)[C@@](O)(O2)C(=O)C(=O)N2CCCC[C@H]2C(=O)O[C@H]([C@H](C)C[C@@H]2CC[C@@H](OP(C)(C)=O)[C@H](OC)C2)CC(=O)[C@H](C)/C=C(\C)[C@@H](O)[C@@H](OC)C(=O)[C@H](C)C[C@H](C)/C=C/C=C/C=C/1C [RIDAFOROLIMUS] | > 30 µM (inactive) | > 30 µM (inactive) | > 30 µM (inactive) | > 30 µM (inactive) | > 30 µM (inactive) | > 30 µM (inactive) | > 30 µM (inactive) |
| N#CC1(c2ccc(NC(=O)c3cccnc3NCc3ccncc3)cc2)CCCC1 [RIVOCERANIB] | > 30 µM (inactive) | > 30 µM (inactive) | > 30 µM (inactive) | > 30 µM (inactive) | > 30 µM (inactive) | > 30 µM (inactive) | > 30 µM (inactive) |
| O=c1[nH]ccc2cc(OC3CCNCC3)ccc12 [SAR-407899 FREE BASE] | > 30 µM (inactive) | > 30 µM (inactive) | > 30 µM (inactive) | 0.008 µM (active) | > 30 µM (inactive) | > 30 µM (inactive) | > 30 µM (inactive) |
| CN1CCN(CCOc2cc(OC3CCOCC3)c3c(Nc4c(Cl)ccc5c4OCO5)ncnc3c2)CC1 [SARACATINIB] | > 30 µM (inactive) | > 30 µM (inactive) | > 30 µM (inactive) | > 30 µM (inactive) | > 30 µM (inactive) | > 30 µM (inactive) | > 30 µM (inactive) |
| CO[C@H]1C[C@@H]2CC[C@@H](C)[C@@](O)(O2)C(=O)C(=O)N2CCCC[C@H]2C(=O)O[C@H]([C@H](C)C[C@@H]2CC[C@@H](O)[C@H](OC)C2)CC(=O)[C@H](C)/C=C(\C)[C@@H](O)[C@@H](OC)C(=O)[C@H](C)C[C@H](C)/C=C/C=C/C=C/1C [SIROLIMUS] | > 30 µM (inactive) | > 30 µM (inactive) | > 30 µM (inactive) | > 30 µM (inactive) | > 30 µM (inactive) | > 30 µM (inactive) | > 30 µM (inactive) |
| CO[C@H]1C[C@@H]2CC[C@@H](C)[C@@](O)(O2)C(=O)C(=O)N2CCCC[C@H]2C(=O)O[C@H]([C@H](C)C[C@@H]2CC[C@@H](OC(=O)C(C)(CO)CO)[C@H](OC)C2)CC(=O)[C@H](C)/C=C(\C)[C@@H](O)[C@@H](OC)C(=O)[C@H](C)C[C@H](C)/C=C/C=C/C=C/1C [TEMSIROLIMUS] | > 30 µM (inactive) | > 30 µM (inactive) | > 30 µM (inactive) | > 30 µM (inactive) | > 30 µM (inactive) | > 30 µM (inactive) | > 30 µM (inactive) |

Continued, values first:

| Kd [1] | Kd [2] | Kd [3] | Kd [4] | Kd [5] | Kd [6] | Kd [7] | Compound |
| --- | --- | --- | --- | --- | --- | --- | --- |
| > 30 µM (inactive) | > 30 µM (inactive) | > 30 µM (inactive) | > 30 µM (inactive) | > 30 µM (inactive) | > 30 µM (inactive) | > 30 µM (inactive) | CN(C[C@@H]1COCCO1)S(=O)(=O)Nc1ccc2ccc3ncc(-c4cnn(C)c4)cc3c(=O)c2c1 [MK-2461] |
| > 30 µM (inactive) | > 30 µM (inactive) | > 30 µM (inactive) | > 30 µM (inactive) | > 30 µM (inactive) | > 30 µM (inactive) | > 30 µM (inactive) | Cn1cc(-c2cnc3ccc4ccc(CS(=O)(=O)NCc5ccccn5)cc4c(=O)c3c2)cn1 [MK-8033] |
| > 30 µM (inactive) | > 30 µM (inactive) | > 30 µM (inactive) | > 30 µM (inactive) | 0.668 µM (active) | > 30 µM (inactive) | > 30 µM (inactive) | Cc1nc(Nc2n[nH]c3c2CN(C(=O)N[C@H](CN(C)C)c2ccccc2)C3(C)C)c2sccc2n1 [PF-03758309] |
| > 30 µM (inactive) | > 30 µM (inactive) | > 30 µM (inactive) | > 30 µM (inactive) | > 30 µM (inactive) | > 30 µM (inactive) | > 30 µM (inactive) | Cn1cc(-c2cnn3c(N)c(Br)c([C@@H]4CCCNC4)nc23)cn1 [SCH-900776] |
| > 30 µM (inactive) | > 30 µM (inactive) | > 30 µM (inactive) | > 30 µM (inactive) | 0.041 µM (active) | > 30 µM (inactive) | > 30 µM (inactive) | CCS(=O)(=O)c1cccc(-c2cc(C(=O)NC3CCN(C)CC3)c(C)c3[nH]c4ncc(C)cc4c23)c1 [TAK-901] |
